{
  "source": "patent US20220267857A1",
  "about": "“METHOD FOR DETERMINING THE RESPONSE TO TREATMENT OF A PATIENT AFFECTED BY NON-SMALL CELL LUNG CARCINOMA (NSCLC)” (FUNDACIÓN PARA LA INVESTIGACIÓN BIOMÉDIKCA DEL HOSPITAL …, priority 2019, published 2022)",
  "assay_in_all_cases": "Viability curves to CDDP, resistant vs sensitive subtype",
  "format_in_all_cases": "cell-based",
  "key": {"[1]": {"tested_on": "H460S/H460R lung cancer cell lines", "settings": "IC50 of resistant cell line/IC50 of sensitive cell line, p<0.001", "procedure": "(§1) FIG. 1. Viability curves to CDDP and CBDCA. The curves show CDDP resistance of cells (A) H23R, (B) H460R, (C) A2780R and (D) 41MR; and to CBDCA of cells (E) H23R-CBDCA and (F) A2780R-CBDCA. The data was normalized with respect to the untreated control, which was established as 100%. IC50 is the concentration that induces the death of 50% of the cell population. The resistance index (IR) is calculated as IC50 of the resistant cell line/IC50 of the sensitive cell line. P<0.001 was considered a significant change in drug sensitivity (Student's t test).\n(§2) Cell Culture Lung and ovarian cancer cell lines H23, H460, H1299, H727, A2780 and OVCAR3 were purchased from the ATCC (Manassas, Va.) or ECACC (Sigma-Aldrich, Spain). All of them were maintained in RPMI supplemented with 10% exosome-depleted FBS, except for OVCAR3 which was cultured in RPMI with 20% exosome-depleted FBS. FBS was depleted of bovine exosomes by ultracentrifugation at 100,000×g for 16 h at 4° C. The CDDP-resistant variants H23R, H460R, A2780R and OVCAR3R, and the carboplatin-resistant variants H23R-CBDCA and A2780R-CBDCA were established by exposing cells to increasing doses of each platinum-based drug as described. The CDDP sensitive and resistant ovarian cancer cell lines 41M and 41MR were provided by Dr. Kelland (UK) and maintained in DMEM supplemented with 10% exosome-depleted FBS.\n(§3) To determine whether cisplatin-resistant cells transmit their resistance through exosomes we used matched CDDP-sensitive/resistant lung cancer and ovarian cell lines H23S/H23R, H460S/H460R, A2780S/A2780R and 41M/41MR and, that we established previously (Ibanez de Caceres, I. et al. IGFBP-3 hypermethylation-derived deficiency mediates cisplatin resistance in non-small-cell lung cancer. Oncogene 29, 1681-1690 (2010); Vera, O. et al. DNA Methylation of miR-7 is a Mechanism Involved in Platinum Response through MAFG Overexpression in Cancer Cells. Theranostics 7, 4118-4134 (2017)). […] We then isolated exosomes from resistant subtypes H23R, H460R, 41MR and A2780R and confirmed their proper size (around 100 nm) using electron microscopy and NanoSight analysis (FIGS. 2A and B) Once we have confirmed that our samples were successfully enriched in exosomes, we wanted to assess if exosomes from cisplatin-resistant cells could alter the drug response of sensitive cells. For that purpose, firstly, we examined whether exosomes isolated from CDDP resistant subtypes were taken up by sensitive parental cells, we labelled exosomes with PKH26 and exposed them to sensitive cells. The analysis using flow cytometry confirmed the uptake of resistant exosomes in more than 77% of sensitive cells H23S, 41M and A2780S compared with PBS control (FIG. 3)."}, "[2]": {"tested_on": "A2780S/A2780R ovarian cancer cell lines", "settings": "IC50 of resistant cell line/IC50 of sensitive cell line, p<0.001", "procedure": "as §1, §2, §3"}, "[3]": {"tested_on": "H23S/H23R lung cancer cell lines", "settings": "IC50 of resistant cell line/IC50 of sensitive cell line, p<0.001", "procedure": "as §1, §2, §3"}, "[4]": {"tested_on": "41M/41MR ovarian cancer cell lines", "settings": "IC50 of resistant cell line/IC50 of sensitive cell line; 41MR vs 41M; p<0.001", "procedure": "as §1, §2, §3"}},
  "data": [
    {"smiles": "N.N.[Cl][Pt][Cl]", "note": "[cisplatin]", "values": [
      {"measurement": "Resistant-Index (RI)", "setting": "[1]", "result": 2.49},
      {"measurement": "Resistant-Index (RI)", "setting": "[2]", "result": 2.11},
      {"measurement": "Resistant-Index (RI)", "setting": "[3]", "result": 2.77},
      {"measurement": "Resistant-Index (RI)", "setting": "[4]", "result": 4.26}
    ]}
  ]
}
